Laboratory results from PubChem BioAssay AID2060511 (Molecular Pharmacology Branch, DTP, NCI, 2025).

System: 422866-222-R5-J1-PDC spheroids with HUVEC/MSC, viability
Assay: Anticancer human tumor 422866-222-R5-J1-PDC patient-derived pancreatic adenocarcinoma cell line growth inhibition [GQUAD]
Conditions: for IC50: curve of first compound; for viability, T/C: stronger effect = lower value
In short: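 Viability of tumor cells grown as complex spheroids with endothelial and stromal cells, exposed to drug combinations. Top concentration at or near clinical Cmax (else 10 microM), diluted in half-log increments.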

[1] = second compound 0.0316 µM, first compound 0.0316 µM
[2] = second compound 0.0316 µM, first compound 0.316 µM
[3] = second compound 0.1 µM, first compound 0.0316 µM
[4] = second compound 0.1 µM, first compound 0.316 µM
[5] = second compound 0.316 µM, first compound 0.0316 µM
[6] = second compound 0.316 µM, first compound 0.316 µM
[7] = second compound 1 µM, first compound 0.0316 µM
[8] = second compound 1 µM, first compound 0.316 µM
[9] = second compound 3.16 µM, first compound 0.0316 µM
[10] = second compound 3.16 µM, first compound 0.316 µM
[11] = second compound 10 µM, first compound 0.0316 µM
[12] = second compound 10 µM, first compound 0.316 µM
[13] = second compound 0.0316 µM, first compound 0.1 µM
[14] = second compound 0.0316 µM, first compound 1 µM
[15] = second compound 0.0316 µM, first compound 3.16 µM
[16] = second compound 0.0316 µM, first compound 10 µM
[17] = second compound 0.1 µM, first compound 0.1 µM
[18] = second compound 0.1 µM, first compound 1 µM
[19] = second compound 0.1 µM, first compound 3.16 µM
[20] = second compound 0.1 µM, first compound 10 µM
[21] = second compound 0.316 µM, first compound 0.1 µM
[22] = second compound 0.316 µM, first compound 1 µM
[23] = second compound 0.316 µM, first compound 3.16 µM
[24] = second compound 0.316 µM, first compound 10 µM
[25] = second compound 1 µM, first compound 0.1 µM
[26] = second compound 1 µM, first compound 1 µM
[27] = second compound 1 µM, first compound 3.16 µM
[28] = second compound 1 µM, first compound 10 µM
[29] = second compound 3.16 µM, first compound 0.1 µM
[30] = second compound 3.16 µM, first compound 1 µM
[31] = second compound 3.16 µM, first compound 3.16 µM
[32] = second compound 3.16 µM, first compound 10 µM
[33] = second compound 10 µM, first compound 0.1 µM
[34] = second compound 10 µM, first compound 1 µM
[35] = second compound 10 µM, first compound 3.16 µM
[36] = second compound 10 µM, first compound 10 µM
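Further: spheroids exposed to compounds for seven days before reading.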
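Wherever viability, T/C is given: percent viability relative to DMSO vehicle control taken as 100%.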

`Cc1[nH]c2ccccc2c1CCNCc1ccc(/C=C/C(=O)NO)cc1` + CN(C)c1ccc(Nc2c3ccc(NC(=O)CCN4CCCC4)cc3nc3cc(NC(=O)CCN4CCCC4)ccc23)cc1 was tested, and the IC50 (second compound 0.0316 µM) was over 316 nM, the IC50 (second compound 0.1 µM) was over 316 nM and the IC50 (second compound 0.316 µM) was over 316 nM. It also gave an IC50 (second compound 1 µM) of over 316 nM, an IC50 (second compound 3.16 µM) of over 316 nM and an IC50 (second compound 10 µM) of over 316 nM. The viability, T/C (second compound 0.0316 µM, first compound 0.000999 µM) was 118%, the viability, T/C (second compound 0.0316 µM, first compound 0.00316 µM) was 98.7% and the viability, T/C (second compound 0.0316 µM, first compound 0.00999 µM) was 116%. The viability, T/C [1] was 83.2%, the viability, T/C (second compound 0.0316 µM, first compound 0.0999 µM) was 54.3% and the viability, T/C [2] was 56.8%. For the same compound, the viability, T/C (second compound 0.1 µM, first compound 0.000999 µM) was 98.3%, the viability, T/C (second compound 0.1 µM, first compound 0.00316 µM) was 102% and the viability, T/C (second compound 0.1 µM, first compound 0.00999 µM) was 119%. For the same compound, the viability, T/C [3] was 89.9%, the viability, T/C (second compound 0.1 µM, first compound 0.0999 µM) was 73.5% and the viability, T/C [4] was 61.5%. It also gave a viability, T/C (second compound 0.316 µM, first compound 0.000999 µM) of 105%, a viability, T/C (second compound 0.316 µM, first compound 0.00316 µM) of 102% and a viability, T/C (second compound 0.316 µM, first compound 0.00999 µM) of 98.7%. The viability, T/C [5] was 76%, the viability, T/C (second compound 0.316 µM, first compound 0.0999 µM) was 69.4% and the viability, T/C [6] was 57%. For the same compound, the viability, T/C (second compound 1 µM, first compound 0.000999 µM) was 77.3%, the viability, T/C (second compound 1 µM, first compound 0.00316 µM) was 91.9% and the viability, T/C (second compound 1 µM, first compound 0.00999 µM) was 131%. It also gave a viability, T/C [7] of 112%, a viability, T/C (second compound 1 µM, first compound 0.0999 µM) of 63.3% and a viability, T/C [8] of 52%. For the same compound, the viability, T/C (second compound 3.16 µM, first compound 0.000999 µM) was 89.5%, the viability, T/C (second compound 3.16 µM, first compound 0.00316 µM) was 97.3% and the viability, T/C (second compound 3.16 µM, first compound 0.00999 µM) was 102%. It also gave a viability, T/C [9] of 103%, a viability, T/C (second compound 3.16 µM, first compound 0.0999 µM) of 80.4% and a viability, T/C [10] of 56.4%. It also gave a viability, T/C (second compound 10 µM, first compound 0.000999 µM) of 96%, a viability, T/C (second compound 10 µM, first compound 0.00316 µM) of 95.4% and a viability, T/C (second compound 10 µM, first compound 0.00999 µM) of 98.8%. The viability, T/C [11] was 109%, the viability, T/C (second compound 10 µM, first compound 0.0999 µM) was 75.2% and the viability, T/C [12] was 53.7%.

In the case of `Nc1ccn(C2OC(CO)C(O)C2(F)F)c(=O)n1` (stereo unspecified) + CN(C)c1ccc(Nc2c3ccc(NC(=O)CCN4CCCC4)cc3nc3cc(NC(=O)CCN4CCCC4)ccc23)cc1, the IC50 (second compound 0.0316 µM) is reported as 3230 nM, the IC50 (second compound 0.1 µM) is reported as 869 nM and the IC50 (second compound 0.316 µM) is reported as 1080 nM. The IC50 (second compound 1 µM) was 451 nM, the IC50 (second compound 3.16 µM) was 277 nM and the IC50 (second compound 10 µM) was over 10000 nM. The viability, T/C [1] was 89.5%, the viability, T/C [13] was 71.6% and the viability, T/C [2] was 74.6%. The viability, T/C [14] was 54.4%, the viability, T/C [15] was 52.5% and the viability, T/C [16] was 41.5%. It also gave a viability, T/C [3] of 104%, a viability, T/C [17] of 70.8% and a viability, T/C [4] of 66.5%. It also gave a viability, T/C [18] of 43.5%, a viability, T/C [19] of 44.6% and a viability, T/C [20] of 39.2%. The viability, T/C [5] was 91.4%, the viability, T/C [21] was 68.4% and the viability, T/C [6] was 54.4%. It also gave a viability, T/C [22] of 57.1%, a viability, T/C [23] of 48.2% and a viability, T/C [24] of 36.5%. The viability, T/C [7] was 72.7%, the viability, T/C [25] was 59% and the viability, T/C [8] was 57.6%. It also gave a viability, T/C [26] of 39.6%, a viability, T/C [27] of 41.3% and a viability, T/C [28] of 34.7%. It also gave a viability, T/C [9] of 75.6%, a viability, T/C [29] of 67.6% and a viability, T/C [10] of 48.7%. The viability, T/C [30] was 35%, the viability, T/C [31] was 39.4% and the viability, T/C [32] was 39.2%. It also gave a viability, T/C [11] of 73.6%, a viability, T/C [33] of 57.9% and a viability, T/C [12] of 57.9%. The viability, T/C [34] was 50.9%, the viability, T/C [35] was 51.8% and the viability, T/C [36] was 49%.

For `O=c1[nH]cc(F)c(=O)[nH]1` + CN(C)c1ccc(Nc2c3ccc(NC(=O)CCN4CCCC4)cc3nc3cc(NC(=O)CCN4CCCC4)ccc23)cc1, the IC50 (second compound 0.0316 µM) was over 10000 nM, the IC50 (second compound 0.1 µM) was over 10000 nM and the IC50 (second compound 0.316 µM) was over 10000 nM. For the same compound, the IC50 (second compound 1 µM) was over 10000 nM, the IC50 (second compound 3.16 µM) was over 10000 nM and the IC50 (second compound 10 µM) was over 10000 nM. The viability, T/C [1] was 96.8%, the viability, T/C [13] was 86.5% and the viability, T/C [2] was 97%. For the same compound, the viability, T/C [14] was 84.5%, the viability, T/C [15] was 82.2% and the viability, T/C [16] was 66.2%. It also gave a viability, T/C [3] of 99.7%, a viability, T/C [17] of 74.6% and a viability, T/C [4] of 104%. For the same compound, the viability, T/C [18] was 75.5%, the viability, T/C [19] was 71.2% and the viability, T/C [20] was 72%. For the same compound, the viability, T/C [5] was 88.6%, the viability, T/C [21] was 79% and the viability, T/C [6] was 75.4%. The viability, T/C [22] was 88.9%, the viability, T/C [23] was 67.3% and the viability, T/C [24] was 68.4%. It also gave a viability, T/C [7] of 88.6%, a viability, T/C [25] of 77% and a viability, T/C [8] of 86.5%. For the same compound, the viability, T/C [26] was 79%, the viability, T/C [27] was 70.8% and the viability, T/C [28] was 67.9%. The viability, T/C [9] was 78.8%, the viability, T/C [29] was 79.4% and the viability, T/C [10] was 86.2%. The viability, T/C [30] was 88.1%, the viability, T/C [31] was 65.9% and the viability, T/C [32] was 53.6%. The viability, T/C [11] was 91.3%, the viability, T/C [33] was 108% and the viability, T/C [12] was 93.8%. For the same compound, the viability, T/C [34] was 84%, the viability, T/C [35] was 75.2% and the viability, T/C [36] was 76.6%.
